{"source": "patent US20100062441A1", "about": "“C-MET MUTATIONS AND USES THEREOF” (priority 2007, published 2010)", "key": {"SCCHN cell lines [1]": {"tested_on": "SCCHN cell lines", "assay": "Viability/growth by MTT and/or Cyquant", "type": "cell-based, human", "settings": "several cell lines", "excerpt": "Specific inhibition of c-Met by small molecule inhibitors can also be determined. […] Both SU11274 (1st generation) and Compound X (3rd generation) were used to test for their respective inhibitory effects on SCCHN cell lines."}, "SCCHN cell lines [2]": {"tested_on": "SCCHN cell lines", "assay": "Cell motility and migration", "type": "cell-based, human", "excerpt": "c-Met is known to have a significant role in cell scattering and possibly metastatic spread (Ren et al., Clin Cancer Res, 11, (17), 6190-7 (2005) and Endo, et al., Hum Pathol, 37, (8), 1111-6 (2006)). Here, the effects of c-Met suppression on cell motility and migration as a surrogate marker for metastatic spread was investigated. […] The degree of downstream modulation varied by cell line."}, "[3]": {"tested_on": "c-Met phosphorylation in SCCHN cell lines", "assay": "c-Met phosphorylation and downstream signaling after HGF stimulation", "type": "cell-based, human"}, "[4]": {"tested_on": "melanoma cell lines that expressed c-Met", "assay": "Cell growth analysis (cell counting)", "type": "cell-based", "settings": "Homo sapiens; 96 hrs, MEM with 10% serum", "procedure": "(§1) For measuring the effect of SU11274 on growth of melanoma cells, MM-AN, MU, PM-WK, MM-RU, MM-MC and RPM-EP cells were plated at 6×10^4 cells in 60 mm dishes in MEM with 10% serum. After 24 hrs different concentrations of SU11274 were added and after 96 hrs cells were trypsinized and counted in a cell counter (Beckman Coulter). Each data point was repeated in triplicate."}, "[5]": {"tested_on": "MITF, tyrosinase, gp-100, MART-1", "assay": "Immunoblotting of melanoma differentiation proteins, densiometric analysis", "type": "cell-based, human", "settings": "12 hrs after treatment; 10 μM SU11274", "excerpt": "SU11274: [(3Z)-N-(3-chlorophenyl)-3-({3,5-dimethyl-4-[(4-methylpiperazin-1-yl)carbonyl]-1H-pyrrol-2-yl}methylene)-N-methyl-2-oxo-2,3-dihydro-1H-indole-5-sulfonamide] (obtained from Pfizer Inc, San Diego, Calif.) was suspended in DMSO and kept in small aliquots at −20 degrees. Phosphospecific antibody to pY1230/1234/1235 (autophosphorylation site) was obtained from Biosource International, Camarillo, Calif. Phosphospecific antibodies for pS473 on AKT and pT421/pS424 on p70 S6-Kinase were obtained from Cell Signaling, Beverly, Mass. Total c-Met and BCLXL antibodies were obtained from Santa Cruz Biotechnology, Santa Cruz, Calif. and β-actin from Sigma Aldrich (St. Louis, Mo.). For detecting melanoma differentiation proteins the following antibodies were used anti-tyrosinase monoclonal antibody (clone T311, Nova-castra, New Castle upon Tyne, UK), anti-gp-100 monoclonal antibody (MO 634, Dako corporation, Carpinteria, Calif.) and anti-MART-1/Melan-A monoclonal antibody (clone M2-7C10, Signet, Dedham, Mass.).\nCells were lysed in lysis buffer containing 20 mM Tris, pH 8.0; 150 mM NaCl, 10% glycerol, 1% NP40, 0.42% NaF, 1 mM PMSF, 1 mM Na3V04, 10 μl/ml Protease inhibitor cocktail (Sigma Aldrich, St. Louis, Mo.) as described previously (Maulik et al., Clin Cancer Res, 8: 620-7 (2002)). Cell lysates were separated by 7.5% or 10% SDS-PAGE electrophoresis under reducing conditions. Proteins were transferred to an immobilization membrane (Bio-Rad Laboratories, Hercules, Calif.) and immunoblotted using the enhanced chemiluminescence technique (PerkinElmer Life and analytical Sciences, Torrence, Calif.).\n(§2) siRNA against c-Met was obtained from Dharmacon (Lafayette, Colo.). Briefly four pooled SiRNA duplexes were transiently transfected into MU melanoma cells by the Dharmacon protocol utilizing Oligofectamine obtained from Invitrogen (Carlsbad, Calif.). Mock transfection was done in parallel using SignalSilence control SiRNA (Cell Signaling Technology) as negative control. For studies on the effect of Si RNA on differentiation proteins MU melanoma cells were transfected with Si RNA as described above and cell lysates were prepared after 12 hrs and immunoblotting performed as described above.\nIt was hypothesized that SU11274 could not only induce a differentiated phenotype, but also MITF, tyrosinase and other melanocyte associated differentiation markers. […] The increase in the level of various differentiation proteins was determined by densiometric anaylsis after treatment with 10 μM SU11274.\n(§3) The effect of si RNA against c-Met was also studied on the proliferation and differentiation of MU melanoma cells. […] The increase in the level of various differentiation proteins was determined by densiometric anaylsis after treatment with c-Met si RNA."}, "MU melanoma cells": {"tested_on": "MU melanoma cells", "assay": "Proliferation / growth of melanoma cells", "type": "cell-based", "settings": "Homo sapiens", "procedure": "as §1, §2\nas §3, with “cells. […] SU11274 at 5 μM and 10 μM inhibited the growth of melanoma cells by 72% and 88% respectively.” for “cells.”"}, "[6]": {"tested_on": "c-Met dependent signaling in MM-MC melanoma cells", "assay": "Phosphorylation of c-Met and signaling molecules via HGF, immunoblotting", "type": "cell-based, human", "settings": "MM-MC (c-Met mutation)", "procedure": "(§4) MU and MC cells that expressed c-Met were deprived of growth factors by incubation in serum free medium containing 0.5% BSA for 24 hours with or without SU11274 (5 μM). After treatment with or without SU11274 in serum free medium, cells were stimulated with or without HGF (EMD Biosciences, San Diego, Calif.) at 40 ng/ml for 7.5 minutes at 37° C. After harvesting, the cells were subjected to the standard procedures of immunoblotting. Antibodies specifically against phosphorylated c-Met, and other proteins are as described above.\n(§5) The ability of SU11274 to inhibit activation of c-Met was examined by immunoblotting. Treatment with HGF increased the autophosphorylation of c-MET at the activation loop site phospho-epitope [pY1230/1234/1235]. […] HGF binding to c-Met activated its' tyrosine kinase, AKT (S-473) and S-6 kinase (T-421/S424)."}, "[7]": {"tested_on": "c-Met dependent signaling in MU melanoma cells", "assay": "Phosphorylation of c-Met and signaling molecules via HGF, immunoblotting", "type": "cell-based, human", "procedure": "as §4, §5"}}, "data": [{"smiles": "Cc1[nH]c(/C=C2\\C(=O)Nc3ccc(S(=O)(=O)N(C)c4cccc(Cl)c4)cc32)c(C)c1C(=O)N1CCN(C)CC1", "note": "[SU11274, (3Z)-N-(3-chlorophenyl)-3-({3,5-dimethyl-4-[(4-methylpiperazin-1-yl)carbonyl]-1H-pyrrol-2-yl}methylene)-N-methyl-2-oxo-2,3-dihydro-1H-indole-5-sulfonamide]", "values": [{"measurement": "viability/growth", "setting": "SCCHN cell lines [1]", "value": "markedly decreased"}, {"measurement": "cell motility", "setting": "SCCHN cell lines [2]", "value": "marked decrease"}, {"measurement": "c-Met phosphorylation", "setting": "[3]; all cell lines tested, HGF stimulation", "value": "Marked inhibition"}, {"measurement": "downstream phosphorylation of SHP2, AKT, ERK", "setting": "[3]; degree varied by cell line", "value": "affected downstream phosphorylation of SHP2, AKT, and to a lesser degree ERK"}, {"measurement": "IC50", "setting": "[4]", "value": "1 to 2.5", "unit": "µM"}, {"measurement": "increase in levels of MART-1", "setting": "[5]", "value": 2, "unit": "fold"}, {"measurement": "increase in levels of MITF", "setting": "[5]", "value": 3, "unit": "fold"}, {"measurement": "increase in levels of gp-100", "setting": "[5]", "value": 6, "unit": "fold"}, {"measurement": "increase in levels of tyrosinase", "setting": "[5]", "value": 12, "unit": "fold"}, {"measurement": "inhibition at 5 µM", "setting": "MU melanoma cells; 5 μM", "value": 72, "unit": "%"}, {"measurement": "inhibition at 10 µM", "setting": "MU melanoma cells; 10 μM", "value": 88, "unit": "%"}, {"measurement": "phosphorylation of c-Met and AKT", "setting": "[6]", "value": "inhibited"}, {"measurement": "BCLXL level", "setting": "[7]", "value": "downregulated"}, {"measurement": "HGF induced phosphorylation of c-Met, AKT and S6 kinase", "setting": "[7]; 5 μM", "value": "completely inhibited"}, {"measurement": "autophosphorylation of c-MET at activation loop site [pY1230/1234/1235]", "setting": "[7]; HGF stimulated", "value": "completely abolished"}, {"measurement": "phosphorylation of c-Met and AKT", "setting": "[7]; MU (no c-Met mutation)", "value": "inhibited"}]}]}
